Inhibition data for 22 molecules are collected here from patent US7595398B2, “N-(5-membered aromatic ring)-amido anti-viral compounds” (SmithKline Beecham Corporation, priority 2005, dated 2009).

SMILES strings stand for the structures.

The assay deals with HCV replicon I389luc-ubi-neo/NS3-3′/ET in ET (Huh-lucubineo-ET) cells; screening for HCV RNA dependent RNA polymerase. The experiment in a line: Replicon Assay (luciferase, ET cell line Huh-lucubineo-ET). It is filed as cell-based. The following applies: Hepatitis C virus; inhibition of replication relative to no compound control; test concentration of 10 μM according to the fitted equation; luciferase 48-72 hours. In short, it runs like this: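 Huh-derived ET cells stably carrying an I389luc-ubi-neo/NS3-3′/ET HCV replicon with a luciferase-ubiquitin-neomycin phosphotransferase fusion and adaptive NS3-5B mutations were cultured in DMEM with 10% fetal calf serum and 250 μg/mL G418. Cells were seeded at 0.5-1.0×10^4 cells/well in 96 well plates and given compound after 24 hrs. Luciferase was read 48-72 hours later with Bright-Glo reagents, and replication inhibition was expressed relative to untreated controls.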
Usually inhibition stands for the percentage by which the read-out fell short of the control. A higher inhibition goes with a response far below the control. Consider `O=C(Nc1ccc(-c2csc(NC(=O)[C@@H]3C[C@@H](O)CN3C(=O)OCc3ccccc3)n2)cc1)C1CC1` [Compound 5310, 2-{4-[4-(Cyclopropanecarbonyl-amino)-phenyl]-thiazol-2-ylcarbamoyl}-4-hydroxy-pyrrolidine-1-carboxylic acid benzyl ester], for which the inhibition at 10 µM was 99.3%.
The value for `O=C(NC1CC1)c1ccc(-c2csc(NC(=O)C3COCN3C(=O)OCc3ccccc3)n2)cc1` (stereo not shown) [Compound 5311, 4-[4-(4-Cyclopropylcarbamoyl-phenyl)-thiazol-2-ylcarbamoyl]-oxazolidine-3-carboxylic acid benzyl ester] was 99.7%.
The value for `O=C(NC1CC1)c1ccc(-c2csc(NC(=O)[C@@H]3COCN3C(=O)OCc3ccccc3)n2)cc1` [Compound 5313, 4-[4-(4-Cyclopropylcarbamoyl-phenyl)-thiazol-2-ylcarbamoyl]-oxazolidine-3-carboxylic acid benzyl ester] was 100%; that for `NC(=O)Nc1ccc(-c2csc(NC(=O)[C@@H]3CCCN3C(=O)OCc3ccccc3)n2)cc1` [Compound 5314, 2-[4-(4-Ureido-phenyl)-thiazol-2-ylcarbamoyl]-pyrrolidine-1-carboxylic acid benzyl ester] was 100%; that for `O=C(NC1CC1)c1ccc(-c2csc(NC(=O)[C@@H]3CCCN3C(=O)Cc3cc(F)cc(F)c3)n2)cc1` [Compound 5315, 1-[2-(3,5-Difluoro-phenyl)-acetyl]-pyrrolidine-2-carboxylic acid [4-(4-cyclopropylcarbamoyl-phenyl)-thiazol-2-yl]-amide] was 99.7%.
In the case of `O=C(NC1CC1)c1ccc(-c2csc(NC(=O)[C@@H]3CCCN3CCc3ccccc3)n2)cc1` [Compound 5316, 1-Phenethyl-pyrrolidine-2-carboxylic acid [4-(4-cyclopropylcarbamoyl-phenyl)-thiazol-2-yl]-amide] it was 3.19%; in that of `O=C(NCCCO)c1ccc(-c2csc(NC(=O)[C@@H]3CCCN3C(=O)OCc3ccccc3)n2)cc1` [Compound 5317, 2-{4-[4-(3-Hydroxy-propylcarbamoyl)-phenyl]-thiazol-2-ylcarbamoyl}-pyrrolidine-1-carboxylic acid benzyl ester], 100%.
On to `O=C(Nc1nc(-c2cccc(NCC3CCCC3)c2)cs1)[C@@H]1CCCN1C(=O)OCc1ccccc1` [Compound 5319, 2-{4-[3-(Cyclopentylmethyl-amino)-phenyl]-thiazol-2-ylcarbamoyl}-pyrrolidine-1-carboxylic acid benzyl ester], for which 10 µM produced 67.4% inhibition.
`O=C(NC1CC1)c1ccc(-c2csc(NC(=O)C3CCCN3C(=O)OCc3cccnc3)n2)cc1` (stereo not shown) [Compound 5320, 2-[4-(4-Cyclopropylcarbamoyl-phenyl)-thiazol-2-ylcarbamoyl]-pyrrolidine-1-carboxylic acid pyridin-3-ylmethyl ester] registered an inhibition at 10 µM of 99.8%.
As for `O=C(NC1CC1)c1ccc(-c2csc(NC(=O)[C@@H]3CCCN3C(=O)c3ccncc3)n2)cc1` [Compound 5321, 1-(Pyridine-4-carbonyl)-pyrrolidine-2-carboxylic acid [4-(4-cyclopropylcarbamoyl-phenyl)-thiazol-2-yl]-amide], the inhibition at 10 µM came to 91.3%.
The value for `O=C(NC1CCNC1)c1ccc(-c2csc(NC(=O)[C@@H]3CCCN3C(=O)OCc3ccccc3)n2)cc1` (stereo partly shown) [Compound 5322, 2-{4-[4-(Pyrrolidin-3-ylcarbamoyl)-phenyl]-thiazol-2-ylcarbamoyl}-pyrrolidine-1-carboxylic acid benzyl ester] was 100%; that for `O=C(NC1CC1)c1ccc(-c2csc(NC(=O)[C@@H]3CCCN3C(=O)Cc3ccc(F)cc3)n2)cc1` [Compound 5323, 1-[2-(4-Fluoro-phenyl)-acetyl]-pyrrolidine-2-carboxylic acid [4-(4-cyclopropylcarbamoyl-phenyl)-thiazol-2-yl]-amide] was 81.5%; that for `O=C(NCCCN1CCOCC1)c1ccc(-c2csc(NC(=O)[C@@H]3CCCN3C(=O)OCc3ccccc3)n2)cc1` [Compound 5324, 2-{4-[4-(3-Morpholin-4-yl-propylcarbamoyl)-phenyl]-thiazol-2-ylcarbamoyl}-pyrrolidine-1-carboxylic acid benzyl ester] was 100%.
In the case of `O=C(NC1CC1)c1ccc(-c2csc(NC(=O)[C@@H]3CCCN3C(=O)Cc3ccccc3)n2)cc1` [Compound 5325, 1-Phenylacetyl-pyrrolidine-2-carboxylic acid [4-(4-cyclopropylcarbamoyl-phenyl)-thiazol-2-yl]-amide] it was 86.9%; in that of `CC(C)(C)NC(=O)c1ccc(-c2csc(NC(=O)[C@@H]3CCCN3C(=O)OCc3ccccc3)n2)cc1` [Compound 5326, 2-[4-(4-tert-Butylcarbamoyl-phenyl)-thiazol-2-ylcarbamoyl]-pyrrolidine-1-carboxylic acid benzyl ester], 100%; in that of `O=C(NC1CC1)c1ccc(-c2csc(NC(=O)[C@@H]3CSCN3C(=O)OCc3ccccc3)n2)cc1` [Compound 5327, 4-[4-(4-Cyclopropylcarbamoyl-phenyl)-thiazol-2-ylcarbamoyl]-thiazolidine-3-carboxylic acid benzyl ester], 100%.
The value for `CN(C(=O)c1ccc(-c2csc(NC(=O)[C@@H]3CCCN3C(=O)OCc3ccccc3)n2)cc1)c1ccccc1` [Compound 5328, 2-{4-[4-(Methyl-phenyl-carbamoyl)-phenyl]-thiazol-2-ylcarbamoyl}-pyrrolidine-1-carboxylic acid benzyl ester] was 97.3%; that for `O=C(Nc1nc(-c2ccc(NS(=O)(=O)C3CC3)cc2)cs1)[C@@H]1CCCN1C(=O)OCc1ccccc1` [Compound 5329, 2-[4-(4-Cyclopropanesulfonylamino-phenyl)-thiazol-2-ylcarbamoyl]-pyrrolidine-1-carboxylic acid benzyl ester] was 97%; that for `O=C(Nc1nc(-c2ccc(NCC3CC3)cc2)cs1)[C@@H]1CCCN1C(=O)OCc1ccccc1` [Compound 5330, 2-{4-[4-(Cyclopropylmethyl-amino)-phenyl]-thiazol-2-ylcarbamoyl}-pyrrolidine-1-carboxylic acid benzyl ester] was 98.8%.
`CN(C(=O)c1ccc(-c2csc(NC(=O)[C@@H]3CCCN3C(=O)OCc3ccccc3)n2)cc1)C1CCCCC1` [Compound 5332, 2-{4-[4-(Cyclohexyl-methyl-carbamoyl)-phenyl]-thiazol-2-ylcarbamoyl}-pyrrolidine-1-carboxylic acid benzyl ester]: the inhibition at 10 µM amounted to 99.7%.
With `CC(C)(C)OC(=O)N1CCS[C@H]1C(=O)Nc1nc(-c2ccc(C(=O)NC3CC3)cc2)cs1` [Compound 5334, 2-[4-(4-Cyclopropylcarbamoyl-phenyl)-thiazol-2-ylcarbamoyl]-thiazolidine-3-carboxylic acid tert-butyl ester], the inhibition at 10 µM came out at 99.9%.
In the case of `O=C(Nc1nc(-c2cccc(NCC3CC3)c2)cs1)[C@@H]1CCCN1C(=O)OCc1ccccc1` [Compound 5335, 2-{4-[3-(Cyclopropylmethyl-amino)-phenyl]-thiazol-2-ylcarbamoyl}-pyrrolidine-1-carboxylic acid benzyl ester] it was 92.5%.
